{
  "source": "patent US20040048790A1",
  "about": "“Inducing cellular immune responses to p53 using peptide and nucleic acid compositions” (priority 1999, published 2004)",
  "key": {"[1]": {"tested_on": "target cells pulsed with wild-type peptide", "test": "CTL recognition of targets pulsed with the wildtype peptide (51Cr release)", "format": "cell-based, human", "conditions": "Number of donors yielding a positive response/total tested; Table XXVIIb"}, "[2]": {"tested_on": "0.221A2.1 cell line, peptide-loaded target", "test": "Primary in vitro CTL induction, 51Cr release against targets pulsed with the induction peptide", "conditions": "Number of donors yielding a positive response/total tested; Table XXVIIb"}, "[3]": {"molecular_target": "A*0202 (Homo sapiens, UniProt P04439, D140Y/D185E/D98H/E176V/E277Q/G131W/G231S/I119L/I121R/I166T/I218V/L180W/L300P/L318F/N151K/N90K/P208A/P217A/Q67R/Q86G/Q94H/R138H/R169H/T345S)", "test": "biochemical"}, "[4]": {"molecular_target": "A*0203 (Homo sapiens, UniProt P04439, A173T/D140Y/D185E/D98H/E277Q/G131W/G231S/I119V/I121R/I166T/I218V/L180W/L300P/L318F/N151K/N90K/P208A/P217A/Q86G/Q94H/R138H/R169H/T345S)", "test": "biochemical"}, "[5]": {"molecular_target": "A*0206 (Homo sapiens, UniProt P04439, D140Y/D185E/D98H/E176V/E277Q/F33Y/G131W/G231S/I119V/I121R/I166T/I218V/L300P/L318F/N151K/N90K/P208A/P217A/Q86G/Q94H/R138H/R169H/T345S)", "test": "biochemical"}},
  "note": "Non-standard residues stand in square brackets, D forms with d. Residues, ends and D or L forms follow the SMILES beside them. Abu = CC[C@H](N)C(=O)O",
  "data": [
    {"smiles": "CC[C@H](NC(=O)[C@H](Cc1ccccc1)NC(=O)[C@H](CCSC)NC(=O)[C@H](CCCCN)NC(=O)[C@H](CC(N)=O)NC(=O)[C@H](CC(C)C)NC(=O)[C@H](C)N)C(=O)N[C@@H](CCC(N)=O)C(=O)N[C@H](C(=O)O)C(C)C", "note": "[p53.129B7V9] (H-ALNKMF[Abu]QV-OH)", "values": [
      {"measurement": "CTL Wild-type", "setting": "[1]", "value": "0/3"},
      {"measurement": "CTL Peptide", "setting": "[2]", "value": "2/4"}
    ]},
    {"smiles": "CC[C@H](NC(=O)[C@H](Cc1ccccc1)NC(=O)[C@H](CCSC)NC(=O)[C@@H](N)CCCCN)C(=O)N[C@@H](CCC(N)=O)C(=O)N[C@@H](CC(C)C)C(=O)N[C@@H](C)C(=O)N[C@@H](CCCCN)C(=O)N[C@H](C(=O)O)C(C)C", "note": "[p53.132B4V9] (H-KMF[Abu]QLAKV-OH)", "values": [
      {"measurement": "CTL Wild-type", "setting": "[1]", "value": "0/4"},
      {"measurement": "IC50", "setting": "[3]", "value": 13, "unit": "nM"},
      {"measurement": "IC50", "setting": "[4]", "value": 9.1, "unit": "nM"},
      {"measurement": "IC50", "setting": "[5]", "value": 37, "unit": "nM"},
      {"measurement": "CTL Peptide", "setting": "[2]", "value": "5/5"}
    ]}
  ]
}
